# In article PMC4646981, “Protein Kinase A Governs Oxidative Phosphorylation Kinetics and Oxidant Emitting Potential at Complex I” (Frontiers in Physiology, 2015):
# Target: T1, complex I (mitochondrial electron transport system; multi-subunit)
# T1 construct: gene Mtnd1; native complex I in freeze-fractured fragments of isolated skeletal muscle mitochondria
# Test: NADH oxidation (complex I activity) assay in mitochondrial fragments, dose-response
# Assay type: biochemical, Mus musculus
smiles,measurement,value
CC(Sc1nc2ccccc2[nH]1)C(=O)N/N=C/c1cc(Br)ccc1O (racemic) [KH7],IC50,3.7 µM
